Measurements taken from paper PMC7822874, “Chemoprotective antimalarials identified through quantitative high-throughput screening of Plasmodium blood and liver stage parasites” (Scientific Reports, 2021).
Like-named read-outs stand apart in the source and are kept apart here.

Assays:
[1] = in vitro; settings: human
[2] = test system: P. berghei-ANKA-GFP-LucCON liver stage parasites in HepG2-A16-CD81EGFP cells; assay: P. berghei liver stage Pb-Luc assay, Method 1 (UCSD, 1536-well); as to Pb-Luc signal, 1 uM, repeat 1: reference of the scale not given here; as to Pb-Luc signal, 1 uM, repeat 2: reference of the scale not given here; as to Pb-Luc signal, 1 uM, repeat 3: reference of the scale not given here; as to Pb-Luc signal, 3 uM, repeat 1: reference of the scale not given here; as to Pb-Luc signal, 3 uM, repeat 2: reference of the scale not given here; as to Pb-Luc signal, 3 uM, repeat 3: reference of the scale not given here; assay type: cell-based, Plasmodium berghei; settings: for Max Resp (signal direction of the dose response) / AC50 / Log AC50 (M): Method 1; for Max Resp (signal direction of the dose response): Decrease = decreasing P. berghei viability with dose, Increase = increasing signal, Inactive = no dose response; for activity at 1 µM / activity at 3 µM: 48 h, average of 2 wells, 1536-well plate; for activity at 1 µM: nominal 1 uM (10 mM stock), […] for 15 mM, 1.2 uM for 12 mM, 2 uM for 20 mM stock; for activity at 3 µM: nominal 3 uM (10 mM stock), 4.5 uM for 15 mM, 3.6 uM for 12 mM, 6 uM for 20 mM stock
[3] = test system: Plasmodium falciparum Dd2 asexual blood stage parasites; assay: microbe, parasite or virus in culture; design: species or system Plasmodium falciparum Dd2 in human erythrocytes; single determination (one 11-point concentration-response curve); settings: Plasmodium falciparum, DD2, Erythrocyte, 72 h
[4] = test system: HepG2-A16-CD81EGFP cells
[5] = test system: luciferase-expressing P. berghei liver stage parasites in HepG2 cells; assay: Inhibition of liver-stage development assay (ILSDA), Method 2 (WRAIR, 96-well); assay type: cell-based, Plasmodium berghei; settings: for Max Resp (signal direction of the dose response): Method 2, Decrease = decreasing P. berghei viability with dose, Increase = increasing signal, Inactive = no dose response; for AC50: Plasmodium berghei
[6] = HepG2-A16-CD81EGFP cells, uninfected
[7] = Hill fit, 50% of maximum activity response, read-out: AC50
[8] = log10 of molar AC50 from Hill fit
[9] = Plasmodium berghei, repeat 1, read-out: Pb-Luc signal, 1 uM, repeat 1
[10] = Plasmodium berghei, repeat 2, read-out: Pb-Luc signal, 1 uM, repeat 2
[11] = Plasmodium berghei, repeat 3, read-out: Pb-Luc signal, 1 uM, repeat 3
[12] = Plasmodium berghei, repeat 1, read-out: Pb-Luc signal, 3 uM, repeat 1
[13] = Plasmodium berghei, repeat 2, read-out: Pb-Luc signal, 3 uM, repeat 2
[14] = Plasmodium berghei, repeat 3, read-out: Pb-Luc signal, 3 uM, repeat 3
[15] = Plasmodium berghei, Hill fit, 50% of maximum activity response, read-out: AC50
[16] = Plasmodium berghei, log10 of molar AC50 from Hill fit, read-out: Log AC50 (converted)
[17] = nominal 1 uM (10 mM stock), […] for 15 mM, 1.2 uM for 12 mM, 2 uM for 20 mM stock, average of 2 wells, repeat 2
[18] = nominal 3 uM (10 mM stock), 4.5 uM for 15 mM, 3.6 uM for 12 mM, 6 uM for 20 mM stock, average of 2 wells, repeat 2
[19] = HepG2, Method 2, Hill fit, 50% of maximum activity response, read-out: AC50
[20] = HepG2, Method 2, log10 of molar AC50 from Hill fit, read-out: Log AC50 (converted)
[21] = P. berghei liver stage, Method 2, dose response
[22] = HepG2, P. berghei liver stage, Method 2, dose response, read-out: AC50
[23] = HepG2, P. berghei liver stage, Method 2, dose response, read-out: Log AC50 (converted)

Row | SMILES | viability at 48 h, 1 µM [1, 6] [%] | viability at 48 h, 3 µM [1, 6] [%] | Max Resp (signal direction of the dose response) [2] | activity at 1 µM [2, 9] [%] | activity at 1 µM [2, 10] [%] | activity at 1 µM [2, 11] [%] | activity at 3 µM [2, 12] [%] | activity at 3 µM [2, 13] [%] | activity at 3 µM [2, 14] [%] | AC50 [2, 15] [nM] | AC50 [2, 16] [nM] | AC50 ([3]; read-out: AC50) [nM] | HepG2 viability signal, 1 uM, repeat 2 [4, 17] [%] | HepG2 viability signal, 3 uM, repeat 2 [4, 18] [%] | Max Resp (signal direction of the dose response) [5] | Activity direction (Decrease / Inactive) [5, 21] | further results
1 | COc1ccc(-n2nc(C)c([C@@H]3C=C[C@@H](NCc4cccc(Cl)c4)C3)c2C)cc1 [NCGC00391691-01] | 104 | 102 | Decrease | 41.3 | 40.5 | 39.6 | 11.5 | 13.5 | 12.4 | 1580 | 1580 | 1370 | 103.31 | 96.15 | Decrease | – | AC50 [2, 7]: 2000 nM; Log AC50 (M) [2, 8]: -5.700 M; AC50 [5, 19]: 1260 nM; AC50 [5, 20]: 1260 nM
2 | CCC(CC)c1cc([C@H]2CN3CC[C@H]2C[C@@H]3CN[S+](=O)([O-])c2cccs2)nc(-c2ccncc2)n1 [NCGC00396883-01] | – | – | Decrease | 64 | 69 | 109 | 37.8 | 32.5 | 35.3 | 501 | 501 | 2370 | – | – | Decrease | – | viability at 48 h, 1 µM [1]: 99.7%; viability at 48 h, 3 µM [1]: 102%; AC50 [2, 7]: 708 nM; Log AC50 (M) [2, 8]: -6.150 M; HepG2 viability signal, 1 uM, repeat 2 ([4]; human, 48 h, 1 µM): 98.83%; HepG2 viability signal, 3 uM, repeat 2 ([4]; human, 48 h, 3 µM): 99.98%; AC50 [5, 19]: 631 nM; AC50 [5, 20]: 631 nM
3 | CCC(CC)c1cc([C@H]2CN3CC[C@H]2C[C@@H]3CNC(=O)COc2ccccc2)nc(-c2ccncc2)n1 [NCGC00420983-01] | 102 | 101 | Decrease | 55.4 | 47 | 38 | 33.3 | 38.2 | 41 | – | – | 1500 | 97.05 | – | – | Inactive | viability at 48 h, 3 µM [1]: 101%
4 | O=C(Nc1ccc2c(N3CCOCC3)ncnc2c1)c1cccc(Br)c1 [NCGC00425561-01] | 97.9 | 39.6 | – | 70.5 | 72.5 | 53.9 | 30.4 | 40.5 | 12.4 | 1410 | 1410 | 4220 | 93.24 | 58.93 | – | – | Activity direction (Decrease / Inactive) [5]: Decrease; AC50 ([5]; HepG2): 31600 nM; AC50 ([5]; HepG2, read-out: Log AC50 (converted)): 31600 nM
5 | CCc1ccc(C2Sc3ccccc3N=C3C2=C(O)c2ccccc23)cc1 (stereo not shown) [NCGC00108831-01] | 103 | 105 | Decrease | 12.1 | 58.2 | 12.7 | 2.42 | 50.9 | 62.2 | – | – | – | 104.01 | 104.74 | Decrease | – | AC50 [5, 19]: 398 nM; AC50 [5, 20]: 398 nM
6 | COc1ccc(-c2cc(C(F)(F)F)nc(SCCC(=O)Nc3cc(C)ccc3O)n2)cc1 [NCGC00101472-01] | – | – | – | 38.3 | 70 | 108 | 2.83 | 48.6 | 51.1 | 2000 | 2000 | 1880 | 103.33 | 103.42 | Inactive | – | HepG2 viability signal, 1 uM, repeat 1 ([4]; nominal 1 uM (10 mM stock), […] for 15 mM, 1.2 uM for 12 mM, 2 uM for 20 mM stock, average of 2 wells, repeat 1): 98.35%
7 | Cc1cc(C)cc(C(=O)Nc2ccc3c(N4CCCC4)ncnc3c2)c1 [NCGC00425487-01] | 89 | 27.1 | – | 67.5 | 99.6 | 77.5 | 25.9 | 34.2 | 15.9 | 1000 | 1000 | 2370 | 92.65 | 36.60 | – | Decrease | AC50 [5, 22]: 15800 nM; AC50 [5, 23]: 15800 nM
8 | COc1cc2c(cc1Oc1cccc(N(C)C)c1)NC(=O)C21CCN(c2cnccn2)CC1 [NCGC00416778-01] | – | – | Inactive | 86.6 | 95.1 | 107 | 35 | 40 | 53.9 | – | – | 1500 | – | – | – | Decrease | viability at 48 h, 1 µM [1]: 101%; viability at 48 h, 3 µM [1]: 89.7%; HepG2 viability signal, 1 uM, repeat 2 ([4]; human, 48 h, 1 µM): 94.98%; HepG2 viability signal, 3 uM, repeat 2 ([4]; human, 48 h, 3 µM): 87.34%; AC50 [5, 22]: 1000 nM; AC50 [5, 23]: 1000 nM
9 | COc1ccc(-c2ccc3ncc(Nc4ccc(C(N)=O)cc4)n3n2)cc1OC [NCGC00412552-01] | 100 | 105 | Inactive | 38.8 | 64.3 | 74.5 | 2.42 | 48.9 | 27.1 | – | – | 2430 | 102.54 | 100.89 | Inactive | – | –
10 | COc1ccc(Nc2cnc3ccc(-c4ccc(OC)c(OC)c4)nn23)cc1 [NCGC00412624-01] | 101 | 109 | Decrease | 3.08 | 5.39 | 3.47 | -0.46 | -0.86 | -0.14 | 1410 | 1410 | 1720 | 100.79 | 112.23 | – | Inactive | –
11 | Cc1ccccc1[S+](=O)([O-])N1CCCC(CCC(=O)NCCN(C)C2CCCCC2)C1 (stereo not shown) [NCGC00425745-01] | 112 | 109 | – | 72 | 61 | 64.9 | 42 | 57.8 | 54.8 | 1780 | 1780 | – | – | – | – | Decrease | AC50 [3]: 8410 nM; HepG2 viability signal, 1 uM, repeat 2 [4]: 108.18%; HepG2 viability signal, 3 uM, repeat 2 [4]: 103.93%; AC50 [5, 22]: 562 nM; AC50 [5, 23]: 562 nM
